According to PMC10535864, “Novel Aminopyrimidine-2,4-diones, 2-Thiopyrimidine-4-ones, and 6-Arylpteridines as Dual-Target Inhibitors of BRD4/PLK1: Design, Synthesis, Cytotoxicity, and Computational Studies” (Pharmaceuticals, 2023):
Each block holds one compound with its values, some of them ahead of it.

Tests used:
[1] = test system: MDA-MB-231 breast cancer cells; assay: MTT cytotoxicity assay, MDA-MB-231; format: cell-based; conditions: MDA-MB-231, MTT; for IC50 / viability at 0.312 µM / viability at 0.625 µM / viability at 1.25 µM / viability at 2.5 µM / viability at 5 µM / viability at 10 µM: Homo sapiens; for IC50: mean of three independent experiments ± SD, read-out: IC50 Value MDA-MB-231
Method in brief: (§1)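 Cells seeded at 1 X 10^5 cells/mL and grown 24 h at 37°C to a monolayer, then exposed to two-fold compound dilutions in RPMI with 2% serum, six doses. MTT added for 4 h at 37°C, formazan dissolved in DMSO, OD read at 560 nm minus 620 nm background. IC50 from dose-response.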

[2] = test system: HT-29 colorectal adenocarcinoma cells; assay: MTT cytotoxicity assay, HT-29; format: cell-based; conditions: MTT; for Toxicity % / viability at 0.312 µM / viability at 0.625 µM / viability at 1.25 µM / viability at 2.5 µM / viability at 5 µM / viability at 10 µM: HT29; for viability at 0.312 µM / viability at 0.625 µM / viability at 1.25 µM / viability at 2.5 µM / viability at 5 µM / viability at 10 µM / IC50: Homo sapiens, HT-29; for IC50: mean of three independent experiments ± SD, read-out: IC50 Value HT-29
Method in brief: as §1

[3] = MTT cytotoxicity assay, U-937; format: cell-based; conditions: Homo sapiens, U-937, U937, MTT;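 further: Six-dose MTT colorimetric assay on cell monolayers, formazan absorbance read at 560 nm with 620 nm background removed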
Protocol: (§2) All newly synthetic compounds were tested for cytotoxicity using a six-dose MTT colorimetric assay on three cancer cell lines; namely, breast cancer cells (MDA-MB-231), colorectal adenocarcinoma cells (HT-29) and renal cancer cells (U-937).
(§3) Using a six-dose MTT colorimetric assay [44, 66], all new synthetic compounds were tested for cytotoxicity against three cancer cell lines: MDA-MB-231 breast cancer cells, HT-29 colorectal adenocarcinoma cells, and U-937 renal cancer cells. […] These cell lines were supplied by ATCC (American Type Culture Collection) via the Holding company for biological products and vaccines (VACSERA, Cairo, Egypt). The reference control used was Methotrexate.
(§4) Using a six-dose MTT colorimetric assay [44, 66], allnew synthetic compounds were tested for cytotoxicity against three cancer cell lines: MDA-MB-231 breast cancer cells,HT-29 colorectal adenocarcinoma cells, and U-937 renal
(§5) The cell lines were supplied by ATCC (American Type Culture Collection). The reference control used was Methotrexate. The cytotoxic activities of the examined compounds were quantified by inoculating a 96-well tissue culture plate with 1 X 10^5 cells / mL (100 uL/well) and incubating it at 37°C for 24 hours to develop a complete monolayer sheet. After forming a confluent sheet of cells, the growth medium was decanted from 96-well microtiter plates, and the cell monolayer was washed twice with wash media. Two-fold dilutions of tested samples were made in RPMI medium with 2% serum (maintenance medium), and 0.1 mL of each dilution was tested in different wells, with three wells serving as controls and receiving only maintenance medium. Following that, the plate was incubated at 37°C and examined. Cells were investigated for any physical signs of toxicity, such as partial or complete monolayer loss, rounding, shrinkage, or cell granulation. MTT solution was prepared (5mg/ml in PBS) (BIO BASIC CANADA INC), and 20 uL MTT solution was added to each well. After 5 minutes on a shaking table at150 rpm to thoroughly mix the MTT into the media, it was incubated (37C, 5% CO2) for 4 hours to allow the MTT to be metabolized. Formazan (MTT metabolic product) was resuspended in 200 uL DMSO and shaken at 150 rpm for 5 minutes to thoroughly mix the formazan into the solvent. The optical density was measured at 560 nm, and the background was subtracted at 620 nm. Finally, the IC50 of the test compound in comparison to the reference was calculated using the GraphPad Prism software.

U-937 renal cancer cells = assay: MTT cytotoxicity assay, U-937; format: cell-based; conditions: MTT; for IC50: Homo sapiens, U-937, mean of three independent experiments ± SD, read-out: IC50 Value U-937; for Toxicity %: U937;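 on all read-outs here: Six-dose MTT colorimetric assay on cell monolayers, formazan absorbance read at 560 nm with 620 nm background removed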
Protocol: as §2, §3, §4, §5

[4] = MTT cytotoxicity assay, normal Vero cells; format: cell-based; conditions: African green monkey, normal Vero cells, MTT; for IC50: mean of three independent experiments ± SD, read-out: In Vitro Cytotoxicity against Normal Cells IC50 Value, Vero Cells; for viability at 0.312 µM / viability at 0.625 µM / viability at 1.25 µM / viability at 2.5 µM / viability at 5 µM / viability at 10 µM: Vero
Protocol: as §3
1.1.In-vitro cytotoxicity screening
as §4, §5

normal Vero cells = assay: MTT cytotoxicity assay, normal Vero cells; format: cell-based; conditions: Vero, MTT
Protocol: as §3
1.1.In-vitro cytotoxicity screening
as §4, §5

BRD4 (BD2) = target: T1, BRD4 (BD2) (Homo sapiens, UniProt O60885); assay: BRD4 inhibitory activity assay (AlphaLISA Bromodomain Assay); format: binding; conditions: for %inh: BRD4 Lab Report; for IC50: mean of three independent experiments, read-out: BRD4 IC50 ± SD;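 on all read-outs here: in vitro inhibition of recombinant BRD4 BD2 bromodomain binding to a BET bromodomain ligand, read by AlphaLISA proximity signal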
T1 construct: BRD4 (BD2) should be thawed on ice; purchased
Protocol: The BRD4 and PLK1 inhibitory assays were carried out in vitro in accordance with the manufacturer’s instructions; BRD4 was assessed using AlphaLISA Bromodomain Assay Protocol [67], and PLK1 kinase was tested using the ADP-Glo™ Kinase Assay Protocol [68], as detailed in the Supplementary file.
The BRD4 and PLK1 inhibitory assays were carried out in vitro in accordance with the manufacturer's instructions; BRD4 was assessed using AlphaLISA Bromodomain Assay Protocol [67], and PLK1 kinase was tested using the ADP-Glo™ Kinase Assay Protocol [68],
The master mixture was prepared as follows: N wells × (2.5 µL 3x BRD Homogeneous Assay Buffer 1 + 1 µL BET Bromodomain Ligand + 1.5 µL H2O). BRD4 (BD2) should be thawed on ice. Simply, the protein-containing tube was spined to recover the full content of the tube after the firstthaw. Both proteins should be aliquoted into single-use aliquots. Immediately, any remaining undiluted protein should be stored in aliquots at -80°C. BRD4 (BD2) was diluted in 1x BRD Homogeneous Assay Buffer 1 at 4 ng/µL. The diluted proteins were kept on ice until they were used. 5 µl of the master mixture is added to each well designated for the “Positive Control”, “Test Inhibitor”, and “Blank”. For the “Substrate Control”, 2.5 µL 3x BRD Homogeneous Assay Buffer 1 + 1 µL Non-acetylated Ligand 1 + 1.5 µL H2O is added. Each “Test Inhibitor” well received 2.5 µL of inhibitor solution, while the “Positive
Control”, “Substrate Control”, and “Blank” wells received 2.5 µL of the same solution without inhibitor (inhibitor buffer). Then, the “Blank” well is filled with 2.5 µL of 1x BRD Homogeneous Assay Buffer 1. After that, GSH
10 µL per well is added, the plate isshaken, and itis incubated at room temperature for 30 minutes. Streptavidin-
10 µL is added per well and incubated at room temperature for further 15 – 30 minutes [67]. The Alpha counts were read using the EnVision® multimode plate reader with the standard Alpha detection settings.

human recombinant PLK1 = human recombinant PLK1 (Homo sapiens, UniProt P53350); assay: PLK1 inhibitory activity assay (ADP-Glo Kinase Assay); format: biochemical; conditions: for %inh: PLK1 Lab Report; for IC50: mean of three independent experiments, read-out: PLK1 IC50 ± SD
Sequence of human recombinant PLK1 (P53350 whole entry): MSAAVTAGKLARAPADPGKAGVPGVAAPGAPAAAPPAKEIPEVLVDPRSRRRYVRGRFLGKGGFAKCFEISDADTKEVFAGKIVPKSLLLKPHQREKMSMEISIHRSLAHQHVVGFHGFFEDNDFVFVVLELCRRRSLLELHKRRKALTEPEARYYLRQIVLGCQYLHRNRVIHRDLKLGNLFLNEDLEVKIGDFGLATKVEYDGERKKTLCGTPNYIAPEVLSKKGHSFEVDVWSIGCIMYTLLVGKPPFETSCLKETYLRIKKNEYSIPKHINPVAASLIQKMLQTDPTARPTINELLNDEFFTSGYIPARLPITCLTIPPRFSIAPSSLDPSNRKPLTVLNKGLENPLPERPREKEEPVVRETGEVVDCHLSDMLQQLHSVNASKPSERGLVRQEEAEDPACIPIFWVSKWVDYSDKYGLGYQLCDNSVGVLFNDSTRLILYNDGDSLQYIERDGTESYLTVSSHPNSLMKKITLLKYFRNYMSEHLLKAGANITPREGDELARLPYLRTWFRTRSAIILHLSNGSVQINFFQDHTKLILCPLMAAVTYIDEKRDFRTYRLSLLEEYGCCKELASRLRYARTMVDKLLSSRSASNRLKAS
Protocol: The BRD4 and PLK1 inhibitory assays were carried out in vitro in accordance with the manufacturer’s instructions; BRD4 was assessed using AlphaLISA Bromodomain Assay Protocol, and PLK1 kinase was tested using the ADP-Glo™ Kinase Assay Protocol, as detailed in the Supplementary file. […]
1.2.2. PLK1 inhibitory activity assay
The kinase reaction was performed with active human recombinant PLK1 and combined with the substrate dephosphorylated casein (positive control) using 1 X reaction buffer (40 mM Tris-HCl pH 7.4, 20 mM MgCl2, 0.1 mg/mL BSA, 1 mM DTT) and 20 μM ATP. The reaction was incubated at30°C for 45 minutes. The amount of ATP transferred was calculated using […] reagent from Promega according to the manufacturer’s instruction.
A plate-reading luminometer isused to measure the luminescence. […]

%inh (BRD4 (BD2); conc 0.01 (unit not given)): 41%
%inh (BRD4 (BD2); conc 0.1 (unit not given)): 58%
%inh (BRD4 (BD2); conc 1 (unit not given)): 75%
%inh (BRD4 (BD2); conc 10 (unit not given)): 91%
%inh (BRD4 (BD2); conc 100 (unit not given)): 95%
IC50 (BRD4 (BD2)): 29 ± 1 nM
%inh (human recombinant PLK1; conc 0.01 (unit not given)): 34%
%inh (human recombinant PLK1; conc 0.1 (unit not given)): 46%
%inh (human recombinant PLK1; conc 1 (unit not given)): 70%
%inh (human recombinant PLK1; conc 10 (unit not given)): 88%
%inh (human recombinant PLK1; conc 100 (unit not given)): 95%
IC50 (human recombinant PLK1): 94 ± 4 nM
Compound: Nc1c(/N=C(/CBr)c2ccccc2)c(=O)[nH]c(=O)n1Cc1ccccc1 [Compound 4, (E)-6-Amino-1-benzyl-5-((2-bromo-1-phenylethylidene)amino)pyrimidine-2,4(1H,3H)-dione]
IC50 [1]: 780 ± 10 nM
viability at 0.312 µM ([1]; 0.312 uM): 99.7%
viability at 0.625 µM ([1]; 0.625 uM): 57.8%
viability at 1.25 µM ([1]; 1.25 uM): 7.14%
viability at 2.5 µM ([1]; 2.5 uM): 8.02%
viability at 5 µM ([1]; 5 uM): 5.1%
viability at 10 µM ([1]; 10 uM): 4.7%
Toxicity % ([1]; 0.312 uM): 0.3103%
Toxicity % ([1]; 0.625 uM): 42.24%
Toxicity % ([1]; 1.25 uM): 92.86%
Toxicity % ([1]; 2.5 uM): 91.98%
Toxicity % ([1]; 5 uM): 94.9%
Toxicity % ([1]; 10 uM): 95.3%
Toxicity % ([2]; 0.312 uM): 0.1292%
Toxicity % ([2]; 0.625 uM): 48.06%
Toxicity % ([2]; 1.25 uM): 92.12%
Toxicity % ([2]; 2.5 uM): 92.46%
Toxicity % ([2]; 5 uM): 92.76%
Toxicity % ([2]; 10 uM): 93.84%
viability at 0.312 µM ([2]; 0.312 uM): 99.9%
viability at 0.625 µM ([2]; 0.625 uM): 51.9%
viability at 1.25 µM ([2]; 1.25 uM): 7.88%
viability at 2.5 µM ([2]; 2.5 uM): 7.54%
viability at 5 µM ([2]; 5 uM): 7.24%
viability at 10 µM ([2]; 10 uM): 6.16%
IC50 [2]: 760 nM
viability at 0.312 µM [3]: 97.3%
viability at 0.625 µM [3]: 83%
viability at 1.25 µM [3]: 24.8%
viability at 2.5 µM [3]: 8.01%
viability at 5 µM [3]: 7.46%
viability at 10 µM [3]: 7.9%
IC50 (U-937 renal cancer cells): 950 nM
Toxicity % (U-937 renal cancer cells; 0.312 uM): 2.669%
Toxicity % (U-937 renal cancer cells; 0.625 uM): 16.99%
Toxicity % (U-937 renal cancer cells; 1.25 uM): 75.22%
Toxicity % (U-937 renal cancer cells; 2.5 uM): 91.99%
Toxicity % (U-937 renal cancer cells; 5 uM): 92.54%
Toxicity % (U-937 renal cancer cells; 10 uM): 92.1%
IC50 [4]: 1730 ± 30 nM
viability at 0.312 µM [4]: 100%
viability at 0.625 µM [4]: 92.9%
viability at 1.25 µM [4]: 63.6%
viability at 2.5 µM [4]: 23.6%
viability at 5 µM [4]: 6.63%
viability at 10 µM [4]: 2.28%
Toxicity % (normal Vero cells; 0.312 uM): 0%
Toxicity % (normal Vero cells; 0.625 uM): 7.106%
Toxicity % (normal Vero cells; 1.25 uM): 36.41%
Toxicity % (normal Vero cells; 2.5 uM): 76.37%
Toxicity % (normal Vero cells; 5 uM): 93.37%
Toxicity % (normal Vero cells; 10 uM): 97.72%

%inh (BRD4 (BD2); conc 0.01 (unit not given)): 38%
%inh (BRD4 (BD2); conc 0.1 (unit not given)): 56%
%inh (BRD4 (BD2); conc 1 (unit not given)): 74%
%inh (BRD4 (BD2); conc 10 (unit not given)): 89%
%inh (BRD4 (BD2); conc 100 (unit not given)): 95%
IC50 (BRD4 (BD2)): 42 ± 2 nM
%inh (human recombinant PLK1; conc 0.01 (unit not given)): 43%
%inh (human recombinant PLK1; conc 0.1 (unit not given)): 60%
%inh (human recombinant PLK1; conc 1 (unit not given)): 76%
%inh (human recombinant PLK1; conc 10 (unit not given)): 90%
%inh (human recombinant PLK1; conc 100 (unit not given)): 95%
IC50 (human recombinant PLK1): 20 ± 1 nM
Compound: Cn1c(SCC(=O)c2ccccc2)nc(=O)c(/N=C(/CBr)c2ccccc2)c1N [Compound 7, (E)-6-Amino-5-((2-bromo-1-phenylethylidene)amino)-1-methyl-2-((2-oxo-2-phenylethyl)thio)pyrimidin-4(1H)-one]
IC50 [1]: 400 ± 10 nM
viability at 0.312 µM ([1]; 0.312 uM): 57%
viability at 0.625 µM ([1]; 0.625 uM): 28.9%
viability at 1.25 µM ([1]; 1.25 uM): 16.5%
viability at 2.5 µM ([1]; 2.5 uM): 11.7%
viability at 5 µM ([1]; 5 uM): 11%
viability at 10 µM ([1]; 10 uM): 4.92%
Toxicity % ([1]; 0.312 uM): 42.95%
Toxicity % ([1]; 0.625 uM): 71.14%
Toxicity % ([1]; 1.25 uM): 83.51%
Toxicity % ([1]; 2.5 uM): 88.25%
Toxicity % ([1]; 5 uM): 88.96%
Toxicity % ([1]; 10 uM): 95.08%
Toxicity % ([2]; 0.312 uM): 0.04307%
Toxicity % ([2]; 0.625 uM): 45.56%
Toxicity % ([2]; 1.25 uM): 86.39%
Toxicity % ([2]; 2.5 uM): 88.67%
Toxicity % ([2]; 5 uM): 93.28%
Toxicity % ([2]; 10 uM): 93.71%
viability at 0.312 µM ([2]; 0.312 uM): 100%
viability at 0.625 µM ([2]; 0.625 uM): 54.4%
viability at 1.25 µM ([2]; 1.25 uM): 13.6%
viability at 2.5 µM ([2]; 2.5 uM): 11.3%
viability at 5 µM ([2]; 5 uM): 6.72%
viability at 10 µM ([2]; 10 uM): 6.29%
IC50 [2]: 790 ± 10 nM
viability at 0.312 µM [3]: 94%
viability at 0.625 µM [3]: 88.3%
viability at 1.25 µM [3]: 55.4%
viability at 2.5 µM [3]: 39.7%
viability at 5 µM [3]: 29.6%
viability at 10 µM [3]: 11.4%
IC50 (U-937 renal cancer cells): 1850 ± 40 nM
Toxicity % (U-937 renal cancer cells; 0.312 uM): 5.991%
Toxicity % (U-937 renal cancer cells; 0.625 uM): 11.66%
Toxicity % (U-937 renal cancer cells; 1.25 uM): 44.55%
Toxicity % (U-937 renal cancer cells; 2.5 uM): 60.35%
Toxicity % (U-937 renal cancer cells; 5 uM): 70.37%
Toxicity % (U-937 renal cancer cells; 10 uM): 88.56%
IC50 [4]: 3920 ± 80 nM
viability at 0.312 µM [4]: 99.6%
viability at 0.625 µM [4]: 99.8%
viability at 1.25 µM [4]: 97.6%
viability at 2.5 µM [4]: 73.5%
viability at 5 µM [4]: 31.6%
viability at 10 µM [4]: 10.5%
Toxicity % (normal Vero cells; 0.312 uM): 0.3992%
Toxicity % (normal Vero cells; 0.625 uM): 0.1996%
Toxicity % (normal Vero cells; 1.25 uM): 2.395%
Toxicity % (normal Vero cells; 2.5 uM): 26.55%
Toxicity % (normal Vero cells; 5 uM): 68.38%
Toxicity % (normal Vero cells; 10 uM): 89.46%
